The text below walks through data of patent US20240100023A1, “Compositions and Methods For Treating Spinal Cord Injuries” (priority 2020, published 2024).

Experiment [1] relates to evoked fEPSPs in rat hippocampus. In words: Evoked fEPSPs in rat hippocampus in vivo (perforant path / dentate gyrus). Also on record: species or system Rat (Long Evans). The note with it: for Minimum Effective Dose, effect on evoked fEPSPs in rat hippocampus: Rat (Long Evans), IP; for Effect on evoked fEPSP / EPSP amplitude: anesthetized rat, intraperitoneal. On the procedure: Further selection and characterization of ampakines to identify SCI recovery drugs useful within the invention involved electrophysiological studies (to measure “electrically evoked field excitatory postsynaptic potentials” (fEPSPs) for test compounds). CX717 and CX1739 were tested for their ability to facilitate synaptic responses in vivo in anesthetized animals following peripheral administration. Stimulating and recording electrodes were inserted into the perforant path and dentate gyrus of the hippocampus, respectively. Electrically evoked field excitatory postsynaptic responses (fEPSPs) were measured before administration of ampakines, and for approximately 2 hours following intraperitoneal administration of ampakines.
Electrically evoked field excitatory postsynaptic potentials (fEPSPs) were determined for the exemplary test ampakines CX717 and CX1739 as described. […] The response magnitude was related to the plasma levels achieved during the study. […] Both ampakines appear to produce a 25% maximum increase in fEPSP amplitude.

The subject of another experiment is LTP in rat hippocampus. In words: Induction of LTP in rat hippocampus in vivo. Also on record: species or system Rat (Long Evans). The note with it: for Minimum Effective Dose, effect on induction of LTP in rat hippocampus: Rat (Long Evans), IP.
The subject of a further experiment is adult rats. In words: Phrenic burst amplitude after C2 spinal cord hemisection (C2Hx). The format is in vivo, Rat. To be noted: two weeks after C2Hx, 15 mg/k, i.v. From the text: In a preliminary examination of the therapeutic potential of ampakines for treating SCI, Wollman and coworkers (2020^16) reported that ampakines may stimulate phrenic activity after incomplete cervical spinal cord injury (SCI) in anesthetized rats. […] To competently address the role of ampakines in alleviating neural and motor function deficits in SCI subjects, Applicants present herein a range of findings, illustrating a diverse array of potent ampakine activities effective for SCI treatment. Among these findings, two low impact ampakines, CX717 and CX1739, potently stimulate diaphragm muscle activation and breathing in freely moving, non-anesthetized rats following SCI. ^16 Wollman L B, Streeter K A, Fusco Gonzalez-Rothi E J, Sandhu M S, Greer J J, Fuller D D. Exp Neural. 2020 December; 334:113 doi: 10.1016/j.expneurol.2020.113465. Epub 2020 September PMID: 32949571.
Exemplifying the efficacy of combining Ampakine SCI treatment with secondary therapeutic intervention, Applicants determined in a predictive animal model that pairing ampakine treatment with a single bout of acute hypoxia (5-min, arterial partial pressure of O2˜50 mmHg) beneficially impacts phrenic bursting, with some rats showing a large facilitation that exceeds the response compared to ampakine-only treated subjects. […]

Another experiment deals with Mouse (CD1). Description: Amphetamine-stimulated locomotion in mice. The format is in vivo. To be noted: for Minimum Effective Dose, amphetamine-stimulated locomotion: Mouse (CD1), IP; for Dose producing a significant decrease in amphetamine-stimulated locomotion: mice, amphetamine 2 mg/kg i.p. As for the experimental part:
Effects of exemplary low impact ampakines were also evaluated in mice for the ability to inhibit amphetamine-stimulated locomotor activity. Mice were placed in the locomotor chamber for 20 min to habituate, removed, injected with either vehicle or SCI recovery ampakine (CX717), and 5 min later injected with 2 mg/kg i.p. Amphetamine Mice were returned to the locomotor chamber 10 min later, and their activity measured for a further 15 min. In related studies, adult male CD1 mice or male Sprague-Dawley rats were acclimated in a test chamber for 20 minutes removed and dosed i.p. (mice) or orally (rats) with CX1739, vehicle, or a reference compound. Five (mice) or 10 (rats) were then injected with amphetamine (2 mg/kg, i.p.) or saline vehicle and were returned to the activity test chamber.

For a further experiment, the system named is Rat (Wistar). Description: Novel object recognition memory. The format is in vivo. To be noted: for Minimum Effective Dose, novel object recognition memory: Rat (Wistar), IP. On the procedure: Additional Novel Object Recognition behavioral model studies were conducted to further elucidate the SCI recovery activities of CX717 and CX1739. Rats were habituated to a test box for two 5-minute sessions on consecutive days. Each test session consisted of two phases: in the first phase (“sample period”), two identical objects (A1 and A2) were placed in the far corners of the box, and the rats were allowed to explore the objects. After a 24 hour delay, rats were re-introduced to the arena (“test period”) now containing a third identical copy of the familiar object (A3) and a new object (B), placed in the same locations as in the first phase, and the total time spent exploring each of the objects was determined over a 3-min duration. For CX717 drug treatment, rats were dosed 30 min prior to each sample session with either 0.1, 0.3, 1.0 mg/kg CX717 (p.o.); vehicle (0.5% methylcellulose, p.o.) or 0.9 mg/kg Aricept (E2020, i.p.). The exploration times for the full 3-min were calculated and expressed as the discrimination index, d1, defined as the absolute difference in time spent exploring the novel object minus the familiar object.
For CX1739 Male Wistar rats were assessed for cognitive ability in a test apparatus comprising an open-field arena placed in a sound-attenuated room under dimmed lighting. Rat exploration and activity were captured by a digital camera, and viewed on a monitor in an adjoining area. Following a 5-minute habituation period, each animal was placed in the test arena in the presence of two identical objects (plastic shapes) and the time spent actively exploring the objects during a 5-minute test period (T1) was recorded. After 24 hours, each rat was again placed in the test arena for 5 minutes (T2) in the presence of one familiar object and one novel object, and the time spent exploring both objects was recorded. The Recognition Index was calculated as the percentage of total exploration time spent exploring the novel object during the retention session (T2), which provides the primary measure of cognitive function in this assay.
The Novel object recognition (NOR) paradigm is a rodent model of recognition learning memory retrieval and takes advantage of the spontaneous behavior of rodents to investigate a novel object compared with a familiar object. NOR has been employed extensively to indicate cognition-enhancing properties of drug candidates, predictive of therapeutic efficacy of positively-assaying drugs for reducing SCI symptoms in humans.

In a further experiment the test system is Rat (Lister). In words: 5 Choice serial reaction time task. To be noted: IP. The format is in vivo. From the text: Another useful animal model for evaluating ampakine activity is the Five Choice Serial Reaction Time Task in Rats. This assay requires rats to provide a single nose poke in response to a light stimulus presented in one of five locations within a 9-hole chamber. With a correct response a reward is delivered that the rat collects from the food magazine at the rear of the chamber. The withdrawal of its head from the food magazine initiates a short inter-trial interval followed by the presentation of the next randomly presented stimulus. An incorrect response results in a time out period (non-reinforcement) followed by the initiation of a new trial. Groups of 12 rats were used in this study, and all rats received all treatments using a randomized sequence. For evaluation using this model, CX1739 was selected as the exemplary low impact ampakine, administered at doses of 3 and 10 mg/kg i.p. 20 min prior to the start of the study.

Consider `O=C(c1ccc2nonc2c1)N1CCOCC1` [CX717, 1-(benzofurazan-5-ylcarbonyl)morpholine], for which, in experiment [1], the “Minimum Effective Dose, effect on evoked fEPSPs in rat hippocampus” value stood at 5 mg/kg and the “Effect on evoked fEPSP / EPSP amplitude” value is “long-lasting increase”. In addition, the “Minimum Effective Dose, effect on induction of LTP in rat hippocampus” value in the experiment on LTP in rat hippocampus amounted to 2 mg/kg. Besides, in the experiment on adult rats, the “Increase of contralateral (CL) phrenic burst amplitude” value came out at 47±26 % BL and the “Increase of ipsilateral (IL) phrenic burst amplitude” value is recorded as 61±46 % baseline, BL. Moreover, in the experiment with Mouse (CD1), the “Minimum Effective Dose, amphetamine-stimulated locomotion” value is given as 18 mg/kg and the “Dose producing a significant decrease in amphetamine-stimulated locomotion” value was found to be 3 mg/kg. The “d1 scores (discrimination index) compared to vehicle” value in the experiment on Rat (Wistar) (0.3 mg/kg, 24 hour delay) is given as “significant increase”. The “Minimum Effective Dose, novel object recognition memory” value with Rat (Wistar) came out at 0.3 mg/kg.

For `CN(C(=O)c1ccc2nonc2c1)C1CCOCC1` [CX1739, N-Methyl-N-tetrahydro-2H-pyran-4-yl-[2,1,3]-benzoxadiazole-5-carboxamide], the “Minimum Effective Dose, 5 choice serial reaction time task” value in the experiment on Rat (Lister) stood at 3 mg/kg. Moreover, in experiment [1], the “Minimum Effective Dose, effect on evoked fEPSPs in rat hippocampus” value was determined as 5 mg/kg and the “Effect on evoked fEPSP / EPSP amplitude” value is listed as “substantial increase”. In addition, in the experiment with LTP in rat hippocampus (3 mg/kg, 15 minutes prior to tetanic stimulation), the “Effect on LTP after tetanic stimulation” value was “statistically significant increase in LTP”. Further, the “Minimum Effective Dose, effect on induction of LTP in rat hippocampus” value in the experiment on LTP in rat hippocampus came out at 3 mg/kg. Further, in the experiment on Mouse (CD1), the “Minimum Effective Dose, amphetamine-stimulated locomotion” value was found to be 30 mg/kg and the “Dose producing a significant decrease in amphetamine-stimulated locomotion” value is reported as 30 mg/kg. The “Preference for novel object exploration compared with positive control” value with Rat (Wistar) (0.03 mg/kg) is “comparable to that of 3 mg/kg galantamine”. Also, in the experiment with Rat (Wistar), the “Minimum Effective Dose, novel object recognition memory” value is 0.03 mg/kg.
